Test results reported in paper PMC4773988, “Structure-based Inhibitor Design for the Intrinsically Disordered Protein c-Myc” (Scientific Reports, 2016).

Tests used:
Solubility in water = format: physicochemical
[1] = cited from earlier work

## O=C(NC(NC(=S)Nc1ccc(I)cc1)C(Cl)(Cl)Cl)OCc1ccccc1 (stereo not drawn) [PKUMDL-YC-1203]
Solubility in water
  Solubility in water: less soluble in water

## Cc1ccccc1C(=O)NC(NC(=S)Nc1cc(Cl)cc(Cl)c1Cl)C(Cl)(Cl)Cl (stereo not drawn) [PKUMDL-YC-1204]
Solubility in water
  Solubility in water: less soluble in water

## JY-3-094
[1]
  Cell penetration: penetrates cells poorly
